Source: patent US9809604B2, “DGAT1 inhibitor and preparation method and use thereof” (Qingdao Huanghai Pharmaceutical Co., Ltd., priority 2013, dated 2017)
Where two headings read alike, the source gives them in different places.

Biological target: T1, DGAT1 (Homo sapiens, UniProt O75907)
T1 sequence (O75907 1-488): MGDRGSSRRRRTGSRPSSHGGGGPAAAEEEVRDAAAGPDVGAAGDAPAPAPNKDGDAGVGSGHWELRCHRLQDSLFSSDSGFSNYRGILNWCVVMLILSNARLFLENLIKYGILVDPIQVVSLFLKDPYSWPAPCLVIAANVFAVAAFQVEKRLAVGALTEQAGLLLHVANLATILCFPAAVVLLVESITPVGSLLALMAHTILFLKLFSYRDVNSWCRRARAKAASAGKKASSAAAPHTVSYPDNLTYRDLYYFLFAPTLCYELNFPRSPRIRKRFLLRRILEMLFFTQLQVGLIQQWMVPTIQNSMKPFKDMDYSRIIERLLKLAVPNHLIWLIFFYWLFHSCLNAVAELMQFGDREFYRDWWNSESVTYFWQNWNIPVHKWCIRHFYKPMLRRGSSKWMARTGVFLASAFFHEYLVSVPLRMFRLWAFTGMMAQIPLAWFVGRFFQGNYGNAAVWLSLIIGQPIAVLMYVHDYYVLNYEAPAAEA
Assay: Human DGAT1 IC50 enzyme assay (Flashplate, 14C-labeled acyl-CoA)
Format: biochemical
Design: made in house
Protocol: The ability of compounds to inhibit DGAT enzyme activity is determined by calculating IC50 values of test compounds. Ki values of DGAT1 are calculated as follows: Cheng-Prusoff equation: Ki=IC50/(1+[S]/Km)
(1) Human DGAT1 IC50 (nM) Experiment
Human DGAT1 activity was determined as follows:
Expressing human DGAT1 enzyme, used diacylglycerol and 14C-labeled acyl-CoA as the substrate, choose PE Company Flashplate testing board to build DGAT1 enzyme reaction system. 14C-labeled acyl-CoA binds to diacylglycerol by covalent bonding after enzymology reaction, and generates the product of 14C-labeled triglyceride. 14C-labeled acyl-CoA substrate is dissolved in reaction solution and 14C-labeled triglyceride product combine with phospholipids of Flashplate plate bottom layer, thus effectively separate labeled substrates and products. The radioactive of 14C-labeled triglyceride which is combined with phospholipid layer is counted, and the potencies of DGAT-1 inhibition for the compounds are determined by calculating the IC50 values.

[1] = average of first and second, read-out: hDGAT1 IC50(nM) Average
[2] = first determination, read-out: hDGAT1 IC50(nM) First
[3] = second determination, read-out: hDGAT1 IC50(nM) Second

SMILES	IC50 [1]	IC50 [2]	IC50 [3]
Nc1ncnc2c1C(=O)N(c1ccc(-c3cnn(CC4CC4)c3)c(Cl)c1)CCO2 [Compound 87, 4-amino-6-(3-chloro-4-(1-(cyclopropylmethyl)-1H-pyrazol-4-yl)phenyl)-7,8-dihydropyrimido[5,4-f][1,4]oxazepin-5(6H)-one]	46.7 nM	49.3 nM	44.2 nM
Nc1ncnc2c1C(=O)N(c1ccc(-c3cn(CCC(=O)O)nc3C(F)(F)F)cc1)CCO2 [Compound 62]	68.2 nM	57.9 nM	78.6 nM
Cc1cc(N2CCOc3ncnc(N)c3C2=O)ccc1N1CCN(CC(=O)O)C1=O [Compound 3, 2-(3-(4-(4-amino-5-oxo-7,8-dihydropyrimido[5,4-f][1,4]oxazepin-6(5H)-yl)-2-methylphenyl)-2-oxoimidazolidin-1-yl)acetate acid]	65.2 nM	60.9 nM	69.5 nM
Cc1cc(N2CCOc3ncnc(N)c3C2=O)cc(C)c1-c1c(C)nn(CC(F)(F)F)c1C [Compound 93, 4-amino-6-(4-(3,5-dimethyl-1-(2,2,2-trifluoroethyl)-1H-pyrazol-4-yl)-3,5-dimethylphenyl)-7,8-dihydropyrimido[5,4-f][1,4]oxazepin-5(6H)-one]	69.4 nM	64.5 nM	74.2 nM
CC(C)Cn1cc(-c2ccc(N3C[C@@H](C)Oc4ncnc(N)c4C3=O)cc2Cl)cn1 [Compound 45, (R)-4-amino-6-(3-chloro-4-(1-isobutyl-1H-pyrazol-4-yl)phenyl)-8-methyl-7,8-dihydropyrimido[5,4-f][1,4]oxazepin-5(6H)-one]	16 nM	17.4 nM	14.6 nM
Nc1ncnc2c1C(=O)N(c1ccc(N3CCN(CC(F)(F)F)C3=O)c(Cl)c1)CCO2 [Compound 8, 4-amino-6-(3-chloro-4-(2-oxo-3-(2,2,2-trifluoroethyl)imidazolidin-1-yl)phenyl)-7,8-dihydropyrimido[5,4-f][1,4]oxazepin-5(6H)one]	38.9 nM	41.9 nM	35.9 nM
Nc1ncnc2c1C(=O)N(c1ccc(N3CCN(CC(=O)O)C3=O)c(C(F)(F)F)c1)CCO2 [Compound 25, 2-(3-(4-(4-amino-5-oxo-7,8-dihydropyrimido [5,4-f][1,4]oxazepin-6(5H)-yl)-2-(trifluoromethyl)phenyl)-2-oxoimidazolidin-1-yl)acetic acid]	58.9 nM	57.2 nM	60.7 nM
Nc1ncnc2c1C(=O)N(c1ccc(-c3cn(CC(=O)O)nc3C(F)(F)F)cc1)CCO2 [Compound 39, 2-(4-(4-(4-amino-5-oxo-7,8-dihydropyrimido[5,4-f][1,4]oxazepin-6(5H)-yl)phenyl)-3-(trifluoromethyl)-1H-pyrazol-1-yl)acetic acid]	98.4 nM	72.9 nM	124 nM
Cc1cc(N2CCOc3ncnc(N)c3C2=O)cc(F)c1N1CCN(CC(=O)O)C1=O [Compound 26, 2-(3-(4-(4-amino-5-oxo-7,8-dihydropyrimido [5,4-f][1,4]oxazepin-6(5H)-yl)-2-fluoro-6-methylphenyl)-2-oxoimidazolidin-1-yl) acetic acid]	50.6 nM	41.3 nM	60 nM
Cc1cc(N2CCOc3ncnc(N)c3C2=O)cc(C)c1-c1cn(CC2(C)COC2)nc1C [Compound 47, 4-amino-6-(3,5-dimethyl-4-(3-methyl-1-((3-methyloxetan-3-yl)methyl)-1H-pyrazol-4-yl)phenyl)-7,8-dihydropyrimido[5,4-f][1,4]oxazepin-5(6H)-one]	87 nM	65.4 nM	109 nM
Cc1cc(N2CCOc3ncnc(N)c3C2=O)cc(Cl)c1N1CCN(CC(=O)O)C1=O [Compound 27]	62.4 nM	69 nM	55.7 nM

Second part, the molecule after the results:

IC50 [1]	IC50 [2]	IC50 [3]	SMILES
57.6 nM	38.7 nM	76.5 nM	CCC(C(=O)O)n1cc(-c2ccc(N3CCOc4ncnc(N)c4C3=O)cc2C)cn1 (stereo not drawn) [Compound 64, 2-(4-(4-(4-amino-5-oxo-7,8-dihydropyrimido [5,4-f][1,4]oxazepin-6(5H)-yl)-2-methylphenyl)-1H-pyrazol-1-yl)butanoic acid]
30.6 nM	35.9 nM	25.3 nM	CC(C)(Cn1cc(-c2ccc(N3CCOc4ncnc(N)c4C3=O)cc2Cl)cn1)C(=O)O [Compound 71, 3-(4-(4-(4-amino-5-oxo-7,8-dihydropyrimido [5,4-f][1,4]oxazepin-6(5H)-yl)-2-chlorophenyl)-1H-pyrazol-1-yl)-2,2-dimethylpropanoic acid]
55.8 nM	78 nM	33.6 nM	CC(C(=O)O)n1cc(-c2ccc(N3CCOc4ncnc(N)c4C3=O)cc2Cl)cn1 (stereo not drawn) [Compound 34, 2-(4-(4-(4-amino-5-oxo-7,8-dihydropyrimido[5,4-f][1,4]oxazepin-6(5H)-yl)-2-chlorophenyl)-1H-pyrazol-1-yl) propanoic acid]
45 nM	59.5 nM	30.5 nM	CC(C)(CO)Cn1cc(-c2ccc(N3CCOc4ncnc(N)c4C3=O)cc2Cl)cn1 [Compound 44, 4-amino-6-(3-chloro-4-(1-(3-hydroxy-2,2-dimethylpropyl)-1H-pyrazol-4-yl)phenyl)-7,8-dihydropyrimido[5,4-f][1,4]oxazepin-5(6H)-one]
45.6 nM	52.8 nM	38.4 nM	Cc1cc(N2CCOc3ncnc(N)c3C2=O)cc(C)c1-c1cn(CCC(=O)O)nc1C [Compound 83, 3-(4-(4-(4-amino-5-oxo-7,8-dihydropyrimido [5,4-f][1,4]oxazepin-6(5H)-yl)-2,6-dimethylphenyl)-3-methyl-1H-pyrazol-1-yl)propanoic acid]
23.5 nM	14.6 nM	32.4 nM	Cc1nn(CCC(=O)O)c(C)c1-c1ccc(N2CCOc3ncnc(N)c3C2=O)cc1 [Compound 76]
25.8 nM	24.8 nM	26.7 nM	Nc1ncnc2c1C(=O)N(c1ccc(-c3cnn(CCC(=O)O)c3)c(Cl)c1)CCO2 [Compound 35, 3-(4-(4-(4-amino-5-oxo-7,8-dihydropyrimido[5,4-f][1,4]oxazepin-6(5H)-yl)-2-chlorophenyl)-1H-pyrazol-1-yl)propanoic acid]
42.5 nM	32.2 nM	52.9 nM	CC(C)(F)Cn1ccc(-c2ccc(N3CCOc4ncnc(N)c4C3=O)cc2Cl)n1 [Compound 95, 4-amino-6-(3-chloro-4-(1-(2-fluoro-2-methylpropyl)-1H-pyrazol-3-yl)phenyl)-7,8-dihydropyrimido[5,4-f][1,4]oxazepin-5(6H)-one]
50.7 nM	46.5 nM	55 nM	Cc1nn(CCC(=O)O)c(C)c1-c1ccc(N2CCOc3ncnc(N)c3C2=O)cc1Cl [Compound 38, 3-(4-(4-(4-amino-5-oxo-7,8-dihydropyrimido[5,4-f][1,4]oxazepin-6(5H)-yl)-2-chlorophenyl)-3,5-dimethyl-1H-pyrazol-1-yl)propanoic acid]
91.9 nM	81.3 nM	102 nM	Cc1cc(N2CCOc3ncnc(N)c3C2=O)ccc1-c1cnn(CC(=O)O)c1 [Compound 57, 2-(4-(4-(4-amino-5-oxo-7,8-dihydropyrimido [5,4-f][1,4]oxazepin-6(5H)-yl)-2-methylphenyl)-1H-pyrazol-1-yl)acetic acid]
52.1 nM	46.4 nM	57.8 nM	CCn1cc(-c2ccc(N3CCOc4ncnc(N)c4C3=O)cc2Cl)cn1 [Compound 79, 4-amino-6-(3-chloro-4-(1-ethyl-1H-pyrazol-4-yl)phenyl)-7,8-dihydropyrimido [5,4-f][1,4]oxazepin-5(6H)-one]
36.8 nM	26.9 nM	46.7 nM	CC(C)(C(=O)O)n1cc(-c2ccc(N3CCOc4ncnc(N)c4C3=O)cc2Cl)cn1 [Compound 33, 2-(4-(4-(4-amino-5-oxo-7,8-dihydropyrimido[5,4-f][1,4]oxazepin-6(5H)-yl)-2-chlorophenyl)-1H-pyrazol-1-yl)-2-methylpropanoic acid]
54.8 nM	69.2 nM	40.3 nM	Cc1nn(CCC(=O)O)cc1-c1ccc(N2CCOc3ncnc(N)c3C2=O)cc1Cl [Compound 78, 3-(4-(4-(4-amino-5-oxo-7,8-dihydropyrimido [5,4-f][1,4]oxazepin-6(5H)-yl)-2-chlorophenyl)-3-methyl-1H-pyrazol-1-yl)propanoic acid]
37.8 nM	28.2 nM	47.4 nM	CCC(C(=O)O)n1cc(-c2ccc(N3CCOc4ncnc(N)c4C3=O)cc2Cl)cn1 (stereo not drawn) [Compound 61, 2-(4-(4-(4-amino-5-oxo-7,8-dihydropyrimido [5,4-f][1,4]oxazepin-6(5H)-yl)-2-chlorophenyl)-1H-pyrazol-1-yl)butanoic acid]
